Converted amounts (≈) assume the structure as drawn.
Tests used:
[1] = Hygroscopicity by dynamic vapor sorption (DVS); format: physicochemical
Description: Dynamic vapor sorption (DVS) was applied to test hygroscopicity of Form G and the crystalline form of the prior art with about 10 mg of samples. The weight gains at each relative humidity were recorded in a cycle of 0-95%-0 RH.

[2] = Adhesiveness: material sticking to the punch on tableting; format: physicochemical; conditions: 30 mg, φ8 mm round tooling, 10 KN, 30 s
Description: 30 mg of Form G and the crystalline form of the prior art were weighed and added into the dies of φ8 mm round tooling, tableted at 10 KN and held for 30 s. The amount of material sticking to the punch was weighed. The compression was repeated twice and the cumulative amount, maximum amount and average amount of material sticking to the punch during the compression process were recorded.

[3] = Bulk and tapped density of powder; format: physicochemical; conditions: for Bulk density (ρ0): about 500 mg in 5-mL measuring cylinder; for Tapped density (ρf): tapped 1250 times
Description: The density of powder is mainly referred to the bulk density and tapped density. The bulk density refers to the density obtained by dividing the mass of the powder by the volume of the powder in the container. The tapped density is obtained by dividing the mass of the powder by the volume of the powder which is tapped to the tightest state.
About 500 mg of Form G and the crystalline form of the prior art are added into a 5-mL measuring cylinder to measure the bulk volumes. The bulk density was calculated according to the equation: bulk density ρ0=powder mass/bulk volume. The samples were tapped 1250 times to make them in the tightest state and the tapped volumes were recorded. The tapped density was calculated according to tapped density ρf=powder mass/tapped volume.

[4] = Kinetic solubility in biorelevant media and water (HPLC); conditions: thermodynamic from solid
Description: (§1) Simulated gastrointestinal fluids such as SGF (Simulated gastric fluids), FaSSIF (Fasted state simulated intestinal fluids) and FeSSIF (Fed state simulated intestinal fluids) are biorelevant media. […] 20 mg of Form G and 20 mg of crystalline form of the prior art were suspended into 1.5 mL of SGF, 1.5 mL of FaSSIF, 1.5 mL of FaSSIF and 1.5 mL of water to get saturated solutions. After equilibrated for 1 h, 4 h and 24 h, concentrations of the saturated solutions were measured by HPLC (mg/mL).

[5] = Flowability by compressibility index (Carr index); format: physicochemical; conditions: graded from compressibility index
Description: Compressibility is usually used to evaluate the flowability of powder and granular intermediates during the formulation process, and is known as compressibility index (c). Compressibility index test method is as follows: a certain amount of powder was added into a measuring cylinder and bulk volume was recorded. Then the powder was tapped to make it in the tightest state, and the tapped volume was recorded. The bulk density (ρ0), tapped density (ρf) were calculated, and compressibility index was calculated according to c=(ρf−ρ0)/pf. Compressibility index, also known as Carr index, is an important index for evaluating flowability.
The test method of Compressibility index is as follows: Compressibility index was calculated according to bulk density ρ0 and tapped density ρf of Form G and the crystalline form of the prior art with c=(ρf−ρ0)/ρf*100%.

[6] = Stability of Form G on storage, crystalline form checked by XRPD; format: physicochemical; conditions: for Crystalline form after storage: XRPD
Text: Crystalline forms were checked by XRPD.

physchem = conditions: thermodynamic from solid
Description: as §1

[7] = FaSSIF (fasted state simulated intestinal fluid), fassif
[8] = FeSSIF (fed state simulated intestinal fluid), fessif
[9] = SGF (simulated gastric fluid), simulated gastric fluid

Structure (SMILES): CCS(=O)(=O)N1CC(CC#N)(n2cc(-c3ncnc4[nH]ccc34)cn2)C1 [Crystalline form of the prior art, Baricitinib, reference compound]
- Weight gain % ([1]; Relative humidity 0): 0%
- Weight gain % ([1]; Relative humidity 10%): 0.07%
- Weight gain % ([1]; Relative humidity 20%): 0.11%
- Weight gain % ([1]; Relative humidity 30%): 0.15%
- Weight gain % ([1]; Relative humidity 40%): 0.19%
- Weight gain % ([1]; Relative humidity 50%): 0.24%
- Weight gain % ([1]; Relative humidity 60%): 0.30%
- Weight gain % ([1]; Relative humidity 70%): 0.36%
- Weight gain % ([1]; Relative humidity 80%): 0.44%
- Weight gain % ([1]; Relative humidity 90%): 0.59%
- Weight gain % ([1]; Relative humidity 95%): 0.78%
- Average amount of material sticking to the punch [2]: 0.21 mg
- Cumulative amount of material sticking to the punch [2]: 0.41 mg
- Maximum amount of material sticking to the punch [2]: 0.43 mg
- Bulk density (ρ0) [3]: 0.133 g/mL
- Tapped density (ρf) [3]: 0.204 g/mL
- solubility kinetic at 1 h [4, 7]: 16 µg/mL (≈ 43.1 µM)
- solubility kinetic at 4 h [4, 7]: 18 µg/mL (≈ 48.5 µM)
- solubility kinetic at 24 h [4, 7]: 18 µg/mL (≈ 48.5 µM)
- solubility kinetic at 1 h [4, 8]: 35 µg/mL (≈ 94.2 µM)
- solubility kinetic at 4 h [4, 8]: 31 µg/mL (≈ 83.5 µM)
- solubility kinetic at 24 h [4, 8]: 33 µg/mL (≈ 88.8 µM)
- solubility kinetic at 1 h [4, 9]: 1900 µg/mL (≈ 5120 µM)
- solubility kinetic at 4 h [4, 9]: 1900 µg/mL (≈ 5120 µM)
- solubility kinetic at 24 h [4, 9]: 1900 µg/mL (≈ 5120 µM)
- solubility kinetic at 1 h ([4]; water): 8.9 µg/mL (≈ 24 µM)
- solubility kinetic at 4 h ([4]; water): 12 µg/mL (≈ 32.3 µM)
- solubility kinetic at 24 h ([4]; water): 13 µg/mL (≈ 35 µM)
- Flowability [5]: Very poor (32-37)
- Flowability ([5]; listed as the prior art form): very poor

Structure (SMILES): CCS(=O)(=O)N1CC(CC#N)(n2cc(-c3ncnc4[nH]ccc34)cn2)C1 [Form G, Baricitinib]
- Weight gain % ([1]; Relative humidity 0): 0%
- Weight gain % ([1]; Relative humidity 10%): 0.01%
- Weight gain % ([1]; Relative humidity 20%): 0.03%
- Weight gain % ([1]; Relative humidity 30%): 0.04%
- Weight gain % ([1]; Relative humidity 40%): 0.06%
- Weight gain % ([1]; Relative humidity 50%): 0.07%
- Weight gain % ([1]; Relative humidity 60%): 0.10%
- Weight gain % ([1]; Relative humidity 70%): 0.15%
- Weight gain % ([1]; Relative humidity 80%): 0.21%
- Weight gain % ([1]; Relative humidity 90%): 0.27%
- Weight gain % ([1]; Relative humidity 95%): 0.34%
- Crystalline form change before and after DVS ([1]; XRPD overlay, cycle 0-95%-0 RH): no crystalline form change
- Average amount of material sticking to the punch [2]: 0.06 mg
- Cumulative amount of material sticking to the punch [2]: 0.12 mg
- Maximum amount of material sticking to the punch [2]: 0.12 mg
- Bulk density (ρ0) [3]: 0.538 g/mL
- Tapped density (ρf) [3]: 0.614 g/mL
- Time for which the form is stable ([6]; 25° C./60% RH (long term)): at least 6 months
- Crystalline form after storage ([6]; 25° C./60% RH, 6 months): Form G
- Time for which the form is stable ([6]; 40° C./75% RH (accelerated)): at least 6 months
- Crystalline form after storage ([6]; 40° C./75% RH, 6 months): Form G
- Time for which the form is stable ([6]; 60° C./75% RH): at least 1 week
- Crystalline form after storage ([6]; 60° C./75% RH, 1 week): Form G
- Time for which the form is stable ([6]; 80° C.): at least 1 week
- Crystalline form after storage ([6]; 80° C., 1 week): Form G
- solubility kinetic at 1 h (physchem; fassif): 81 µg/mL (≈ 218 µM)
- solubility kinetic at 4 h (physchem; fassif): 100 µg/mL (≈ 269 µM)
- solubility kinetic at 24 h (physchem; fassif): 140 µg/mL (≈ 377 µM)
- solubility kinetic at 1 h (physchem; fessif): 130 µg/mL (≈ 350 µM)
- solubility kinetic at 4 h (physchem; fessif): 170 µg/mL (≈ 458 µM)
- solubility kinetic at 24 h (physchem; fessif): 220 µg/mL (≈ 592 µM)
- solubility kinetic at 1 h (physchem; simulated gastric fluid): 2600 µg/mL (≈ 7000 µM)
- solubility kinetic at 4 h (physchem; simulated gastric fluid): 2700 µg/mL (≈ 7270 µM)
- solubility kinetic at 24 h (physchem; simulated gastric fluid): 2800 µg/mL (≈ 7540 µM)
- solubility kinetic at 1 h (physchem; water): 52 µg/mL (≈ 140 µM)
- solubility kinetic at 4 h (physchem; water): 66 µg/mL (≈ 178 µM)
- solubility kinetic at 24 h (physchem; water): 96 µg/mL (≈ 258 µM)

— patent publication US11124517B2 (CRYSTAL PHARMACEUTICAL (SUZHOU) CO., LTD., priority 2017, dated 2021)
